Measurements as given in patent publication US20210283211A1, “COMPOSITIONS AND METHODS OF ALLEVIATING RESISTANCE TO CHEMOTHERAPY” (CITY OF HOPE, priority 2019, published 2021).
“Also recorded” adds a separate entry of the source.

What was measured:
H358 cells = experiment: Cell-based rescreen of top virtual-screen hits, IC50 determination; conditions: Homo sapiens, NCI-H358, 0.1 μM to 10 μM, 72 hours
Experimental: Cell viability assay: Cell Counting Kit-8 (CCK-8) was purchased from Dojindo Molecular Technologies (Rockville, Md., USA). Cells were seeded on a 96-well plate and allowed to adhere in complete medium for 24 hours. Test compounds were added to 100 μl of medium at the indicated concentrations for 72 hours. Ten μl of the CCK-8 reagent were added to each well and absorbance at 450 nm was measured using a Tecan Spark 10M multimode microplate reader.
A virtual screen of a library of 1440 FDA-approved drugs using binding pockets in the N-terminal domain of PXN (FIG. 9H) identified several putative hits. The top 40 hits were then rescreened employing a cell-based assay to determine their efficacy using H358 cells.

H1993 cells = experiment: Carfilzomib dose response on cell proliferation, IC50 determination; type: cell-based, human; conditions: increasing dose
Experimental: (§1) Cell proliferation and apoptosis assay. Cell proliferation assays were performed using cell lines stably transfected with NucLight Red Lentivirus (Essen Bioscience) to accurately visualize and count the nucleus of a single cell. Cells were seeded on a 96-well plate and allowed to adhere for 24 hours. Test compounds were added at indicated concentrations. Caspase-3/7 Green Apoptosis Reagent (Essen Bioscience) was also added as a green fluorescent indicator of caspase-3/7-mediated apoptotic activity. To monitor cell proliferation and apoptosis over time, the plate was placed in the IncuCyte S3 Live-Cell Analysis System (Essen BioScience) and images were acquired every 2 hours. Data analysis was generated by the IncuCyte software using a red fluorescence mask to accurately count each cell nucleus and a green fluorescence mask to measure apoptosis over time.
Then a sublethal dose was used to determine the effect of these compounds on ITGB4 and PXN expression and caspase activity (FIG. 9I). […] These eleven compounds were further screened in the cisplatin-resistant cell line H2009. […] Further, carfilzomib was tested in another cisplatin-resistant cell line H1993.

[1] = system: patient-derived organoids (lung cancer); experiment: Patient tumor tissue-derived organoid assay (area, caspase activity); type: cell-based, human
Experimental: Next, drug efficacy in patient tumor tissue-derived organoids was determined. Approximately 5000 cells/sample from 2 surgical samples were seeded in an ultra-low attachment plate and incubated at 37° C. […] In one of the patient-derived organoids, cisplatin treatment alone decreased spheroid area and increased apoptosis as measured by green intensity (FIG. 11D). […] Indeed, by 72 hours carfilzomib at a concentration of 2.5 μM induced 5-fold increase in caspase activity compared to cisplatin alone but there was not much change in the spheroid area (FIGS. 11E-11F). Thus, no additive effect was apparent in this patient sample. […] The efficacy of ITGB4 antibody in disrupting organoid growth and inducing apoptosis was also tested.

H2009 cells [2] = experiment: IncuCyte cell proliferation and caspase-3/7 apoptosis assay; type: cell-based, human; conditions: 80 nM, 72 hours, among eleven compounds
Experimental: as §1
To determine whether the inhibition in cell proliferation associated with ITGB4 knockdown was due to enhanced apoptosis or reduced cell division (cytostatic), the Essen Bioscience Caspase-3/7 Green apoptosis assay in live cells was conducted. The NucView™[…], a DNA intercalating dye was used to enable quantification of apoptosis over time. The dye is impermeable and non-toxic to cells but once the cell membrane is permeabilized by caspase-3/7, the dye enters the cell and gets activated due to change in pH leading to the generation of green fluorescence that is then detected in real time and quantified using the IncuCyte System (FIG. 4B).
To address this, H1993 and H2009 cells were treated with cisplatin for 3 days and the changes were analyzed by immunoblotting. […] Next, H1993 and H2009 cells were transiently transfected with ITGB4 siRNA and 24 hours post-transfection they were treated with 10 μM cisplatin and cell proliferation and caspase activity were determined. […] However, in response to cisplatin in ITGB4 knockdown cells, the fold change dipped to <1, alluding to a cytotoxic effect (FIG. 4C). […] However, cell death was not due to caspase activation but appeared to be due to cell bursting which is seen in anoikis (FIGS. 3K and 3L).

H2009 cells [3] = experiment: Scratch wound healing assay; type: cell-based, human
Experimental: Scratch wound healing assay. Cells were seeded on a 96-well Image Lock (Essen BioScience, Ann Arbor, Mich., USA) plate to reach 90% confluence by the next day. After cell adherence, 96 uniform wounds were created simultaneously using the WoundMaker (Essen BioScience) tool. Cells were washed once with serum-free medium and replenished with complete medium. To monitor wound healing, the plate was placed in the IncuCyte S3 Live-Cell Analysis System (Essen BioScience) and images were acquired every hour. Data analysis was generated by the IncuCyte software using a set confluence mask to measure relative wound density over time.
To discern the effect of knocking down ITGB4 on cell migration, H1993 and H2009 cells were transfected with the control or ITGB4-specific siRNA in 6-well plates and 12 hours post transfection, the cells were trypsinized and reseeded at high density in a 96-well plate. […] While both cell lines transfected with the control siRNA achieved 100% confluency of the wound within 48 hours, H1993 and 2009 cells in which ITGB4 was knocked down reached ˜60% and ˜80% confluency, respectively; neither cell line reached 100% confluency even after 96 h (FIG. 3F). Next the rate of wound closure was estimated. The rate was determined by dividing initial wound width by the time taken to close the wound. […] Similarly, in the case of the H2009 cells, the wound width closure rate dropped from 22 μm/h to about 18 μm/h (FIG. 3G). […] Additionally, up regulation of expression of other integrin β forms in response to ITGB4 knockdown was checked and an increase in the expression of ITGB1, ITGB2, and ITGB3 at mRNA level was found (FIG. 3I). The effect of ITGB3 silencing in the ITGB4 knocked down cells was further tested but no significant difference in their proliferation was found (FIG. 3J).

CC(C)C[C@H](NC(=O)[C@H](CCc1ccccc1)NC(=O)CN1CCOCC1)C(=O)N[C@@H](Cc1ccccc1)C(=O)N[C@@H](CC(C)C)C(=O)[C@@]1(C)CO1 [Carfilzomib]
IC50 (H358 cells): 0.0008 µM | IC50 (H1993 cells; H1993 cells): 1.77 µM | IC50 (H1993 cells; Homo sapiens, NCI-H1993, H1993 cells): 1.7 µM | spheroid area ([1]; patient LCSC2): decreased the spheroid area | caspase activity, combination with cisplatin ([1]; patient LCSC2, both drugs combined): enhanced | apoptosis, combination with cisplatin ([1]; patient LCSC4, carfilzomib and cisplatin combined): did not have an additive effect | organoid size ([1]; patient LCSC4, cisplatin 5 μM alone, carfilzomib 2.5 μM alone): decreased the size of the organoid | induction of apoptosis (caspase activity) compared to cisplatin alone ([1]; patient LCSC4 organoids, 2.5 μM, by 72 hours): 5 fold | increase in apoptosis (caspase activity) ([1]; second patient (LCSC2) organoids): ~50 fold | inhibitory effect in cell proliferation (H2009 cells [2]): greatest inhibitory effect in cell proliferation | wound confluency (H2009 cells [3]; 200 nM, untreated >90%): 79% | cell migration / wound healing (H2009 cells [3]; sublethal dose (carfilzomib 50-200 nM)): significant inhibition of wound healing and reduction in wound closure rate; also recorded: dose-dependent inhibition of cell migration
